Laboratory results: ChEMBL document CHEMBL3507680, “University of Dundee, Gates Library screen for HepG2 cell viability”

Test: Human HepG2 cell viability assay in 384 well format
Assay type: toxicity, cell-based
Parameters: dose 125 nL, time 70.5 hour; cytotoxicity at 70.5 h: concentration not given beside the values
Conditions: HepG2 cells, read-out: Inhibition

SMILES	cytotoxicity at 70.5 h [%]
Cc1ccoc1C(=O)N1CC[C@@]2(C[C@H](NS(C)(=O)=O)CCO2)C1	-18.1
CC(C)Oc1ncc(C(=O)N2CCc3ccc(O)cc3C2)cc1Cl	15.8
CC(NC(=O)NCCCn1cncn1)c1ccccc1F (stereo not drawn)	-4.63
Cc1cc(-c2noc(C3CCS(=O)(=O)C3)n2)ccc1F (stereo not drawn)	-11
O=C(c1ccco1)N1CCCC2(C1)CN(c1nncs1)CCO2 (stereo not drawn)	-5.17
CCCN(CCC)c1ncc(S(=O)(=O)c2ccc(C)cc2)c(N)n1	-19.9
Cc1noc([C@@H]2CCO[C@@H]3CCN(Cc4cccs4)C[C@@H]32)n1	9.6
CCOc1ncccc1C(=O)N1CCCC(c2nccn2CCOC)C1 (stereo not drawn)	-9.63
COc1cccc2c(=O)n(Cc3cc(C4CC4)[nH]n3)cnc12	0.602
O=C1NCC(C(=O)N(Cc2cccc(Br)c2)C2CC2)N1 (stereo not drawn)	26.3
Cc1ccc(CN(CCN(C)C)C(=O)Nc2cc(C(N)=O)ccc2C)s1	21.3
CSCc1cccc(S(=O)(=O)NCCCn2ccnc2)c1	-5.18
Cn1ccc(C(=O)NCc2cccc(Cn3ccnc3)c2)cc1=O	-4.36
CC(C)C(=O)N1CCN(S(=O)(=O)C2CC2)CC2(CC(=O)N(C)C2)C1 (stereo not drawn)	-6.71
O=C1C[C@H]2[C@@H](CCN2C(=O)Cc2cccs2)N1Cc1cccnc1	-17
CCCS(=O)(=O)N1Cc2nccn2CC(Cn2cncn2)C1 (stereo not drawn)	20.3
Cc1occc1C(=O)N1CCn2cnc(COCC3CC3)c2C1	-0.838
CC(C)NC1CCc2c(ccc(=O)n2CCN(C)C)C1 (stereo not drawn)	7.71
COc1ccccc1S(=O)(=O)Nc1ccc2c(C(=O)O)c[nH]c2c1	-6.86
CC(C)(O)CN1CCN(C(=O)c2ccn(-c3cccc(F)c3)n2)CC1	-4.39
O=C(COC1CCCCC1)Nc1ccn(Cc2ccccn2)n1	-5.54
O=C1CCC2(CCN(Cc3ccoc3)CC2)N1OCc1ccccc1F	-7.61
COCCN1CCN(Cc2coc(-c3ccccc3Cl)n2)CC1	-10.2

SMILES	cytotoxicity at 70.5 h [%]
Cc1cc(C)n(-c2ccc(C(=O)NCc3cncn3CC(C)C)cc2)n1	-1.13
CC1CCN(CCCNS(=O)(=O)c2cc(F)cc(F)c2)CC1	48.4
COCCn1/c(=N\C(=O)CN(C)S(C)(=O)=O)sc2cc(OC)ccc21	17.2
COC(=O)CSCc1nc(-c2ccc(Cl)cc2)no1	11
Cc1cc(CN(Cc2cccnc2)CC2CCCO2)on1 (stereo not drawn)	-1.62
CC(CN1CCOCC1)NC(=O)N1CCCC1 (stereo not drawn)	-3.6
CN(C)c1ccc(C(=O)N2C[C@@H](CN3CCCCC3)[C@@H](CO)C2)cc1	-4.9
O=C(Nc1cc(N2CCOCC2)ncn1)c1cnccn1	-3.66
CC(C)NC(=O)N1CC[C@@H]2CN(S(C)(=O)=O)CCO[C@@H]2C1	-4.96
Cc1noc(C)c1CN1CC2(CCCCN2c2cncnc2)CC1=O (stereo not drawn)	-3.04
CCC(C)N(Cc1ccsc1)C(=O)c1ccc(CO)cc1 (stereo not drawn)	-0.23
COc1ccc(CNCc2ccc(N3CCCCC3)nc2)cc1OC	-4.42
CC(O)CN1CCN(C(=O)c2ccc(Cn3cccc3)cc2)CC1 (stereo not drawn)	-2.78
CSc1nc(C)cc(N2CCC(c3ncc[nH]3)CC2)n1	-2.3
CN(C)C(=O)c1cnc2n1CCN(Cc1cccnc1)C2	4.75
c1cnc(N2CCOCC3(CCCN(c4nncs4)C3)C2)cn1 (stereo not drawn)	-3.82
CCn1nc(C)c(CCNC(=O)C2CCCN(C3CCCC3)C2)c1C (stereo not drawn)	20.4
Cc1cnn(C2CN(Cc3noc(-c4ccccc4)n3)C2)c1	-7.62
CC(C)N1CCCC1c1cc(C(F)(F)F)[nH]n1 (stereo not drawn)	0.712
OC(CNc1cncc(OCc2ccccc2)n1)c1ccco1 (stereo not drawn)	-5.66
CCOC(=O)NCCNC(=O)c1cc2ccccc2nc1N1CCCC1	2.35
CN1CCOC(C(=O)Nc2ccc3c(c2)nc(C2CC2)n3C)C1 (stereo not drawn)	-3.17
COc1ccccc1OCC(=O)n1ncc(C#N)c1N	9.32

SMILES	cytotoxicity at 70.5 h [%]
O=C(c1cccnc1N1CCN(CCO)CC1)N1CCCC1	-1.63
Cc1ccc2c(c1)SCC(=O)N2CC(=O)N1CCCC1c1nccs1 (stereo not drawn)	-14
Cc1nc2ccccc2nc1CN(C)C1CCCN(c2cccnn2)C1 (stereo not drawn)	4.32
O=C(CC1CC1)N1C[C@@H]2CN(c3ccccc3)C(=O)[C@@H]2C1	-8.68
Cc1cc(C(=O)NCc2ccc(N3CCCC(C(N)=O)C3)cc2)[nH]n1 (stereo not drawn)	-2.55
CC(O)CN1CCN(Cc2cccc(C(=O)N3CCCCC3)c2)CC1 (stereo not drawn)	17.1
CCN1CCN(CCNC(=O)c2sc(C(C)C)nc2C)CC1	0.965
CC1CN(Cc2ccccn2)CCN1c1ccc2nncn2n1 (stereo not drawn)	-0.942
CN(CC(F)(F)F)C(=O)C1CSCN1C(=O)OC(C)(C)C (stereo not drawn)	4.04
COC(=O)c1cccc(C(=O)N2CCN(c3cc(Cl)ccc3C)CC2)n1	-2.22
Oc1ccc(N2CCC(Cc3ccccc3)CC2)nn1	-4.56
Cc1cnccc1N1CCCN(C(=O)CCn2ccnc2C)CC1	-3.98
CN(C)C(=O)CN1C[C@@H]2CC[C@H](C1)N(Cc1ccccc1OCCO)C2	-9.08
CC(C)CC(=O)N1CC[C@H]2N(C)CC[C@@]2(C(=O)Nc2ccccc2)CC1	36.5
CC(=O)N1CC[C@@]2(O)CCCC[C@H]2[C@@H]1c1ccc2c(c1)OCO2	-1.93
O=C(CN1CCCC1c1nc(Cc2ccc(F)cc2)no1)NC1CC1 (stereo not drawn)	0.125
COc1c(C2CCCN2Cc2nnc(C3CC3)o2)c(C)nn1C (stereo not drawn)	-4.73
O=C(Cc1ccc(F)cc1)NCCNCC1CNc2ccnn2C1 (stereo not drawn)	16.6
CC(C)n1c(C(=O)N2CCCC2)nc2c1CCN(c1ncccn1)C2	0.473
Cc1ccc(C(=O)NCCCN(C)S(C)(=O)=O)cc1-n1cccc1	-8.22
NC(=O)C1CN(Cc2c[nH]cn2)CCN(C2CCOCC2)C1 (stereo not drawn)	-9.19
COc1c[nH]c(C(=O)Nc2nc(C)cs2)cc1=O	-5.81
COCC(=O)N1CCC2(CC1)CN(c1cncnc1)C(=O)CO2	-12

SMILES	cytotoxicity at 70.5 h [%]
Cc1nc(N2CCCC2)nc(C)c1NC(=O)c1ccco1	-1.46
CC(=O)N1CCN(C(=O)c2cc(C(C)C)no2)[C@H]2CS(=O)(=O)C[C@H]21	-3.64
Cc1c(NCC(C)(C)C)cccc1C(=O)N(C)Cc1ncnn1C	21
Cc1cccc(CN2C[C@@H]3[C@@H](C(=O)NCC(C)C)CCS(=O)(=O)[C@@H]3C2)c1	-6.13
CC(C)[C@@H]1CN(Cc2ccccc2C#N)C[C@H]1N(C)C	31.1
CC(C)C(C)NC(=O)Nc1cccc2c1CCN(S(C)(=O)=O)C2 (stereo not drawn)	-2.03
COCCC(=O)N1CCCC(CCC(=O)NCc2cccc(OC)c2)C1 (stereo not drawn)	20.8
CN(C)C(=O)c1cccc(Nc2cnn(C)c2)c1	-3.59
CC(C)[C@@H]1CN(C2CCN(Cc3ccccc3)CC2)C[C@H]1NS(C)(=O)=O	0.292
Cc1noc(C)c1CN(C)C(=O)Cn1c(=O)n(C)c2ccccc21	-15.9
COC(=O)CCCn1ccnc1C(C)c1ccccc1 (stereo not drawn)	-1.4
CCN1CCCC1Cn1ccc2c(OC)c(OC)ccc2c1=O (stereo not drawn)	-6.22
CCc1n[nH]c(C2CN(C(=O)CCc3cccs3)CCO2)n1 (stereo not drawn)	13.9
Cc1ccc(NC2CCN(C(=O)c3ccc(F)cc3Cl)CC2)nn1	-3.69
CN1C(=O)CC(c2cnn(C)c2)C12CCN(CC1CCOCC1)CC2 (stereo not drawn)	-9.88
CN(C)c1cnn(CC(=O)N2Cc3ccccc3C2)c(=O)c1	22
Cc1cccc(OC2CCN(Cc3ncc[nH]3)CC2)c1	15.5
CN(C)C(=O)N1CCCC(C(=O)N(C)CCCc2cnn(C)c2)C1 (stereo not drawn)	-11.5
COc1cccc(-c2noc(C3CCN(Cc4cn(C)nc4C)C3)n2)c1 (stereo not drawn)	-5.53
O=C(NCCc1ccccc1)c1cccc(S(=O)(=O)NC2CCOC2)c1 (stereo not drawn)	19.4
CCn1nc(C)c2c1cnn2CCNS(=O)(=O)CC	3.21
CCN(CC(F)(F)F)C(=O)C1CCCN(Cc2cscn2)C1 (stereo not drawn)	26.1
c1cncc(CO[C@H]2CO[C@@]3(CCN(Cc4ccoc4)C3)C2)c1	-20.1

SMILES	cytotoxicity at 70.5 h [%]
CC(O)(CN1CCC(O)CC1)c1cccc(C(F)(F)F)c1 (stereo not drawn)	-14.5
CC1COCCN1C(=O)Cc1cc(Cl)c2c(c1)OCCCO2 (stereo not drawn)	-14.3
O=C(CCc1ccc(Br)cc1)NCc1nnc[nH]1	-9.74
O=C(NCC1CC2(CO1)CN(c1ncccn1)C2)C1CCC1 (stereo not drawn)	2.73
CCCC1CCCN(C(=O)CNC(=O)c2ccoc2C)CC1 (stereo not drawn)	-18.9
CCc1ocnc1C(=O)N1CCC2(CC1)OCC(C)O2 (stereo not drawn)	-5.57
CN(Cc1ccc2c(c1)OCO2)Cc1nc(Cc2ccccc2)no1	-5.91
CCN1CC(C(=O)N2CC(Oc3ccccc3F)C2)CC1=O (stereo not drawn)	-1.35
CCOc1ncccc1Cn1cc(-c2nccn2C)nn1	-10.3
CC(=O)N1CCC(C)(c2cc[nH]n2)CC1	-3.17
COc1cc2c(nn1)CCN(Cc1ncc(C(C)(C)C)o1)C2	-5.34
Cc1cc(N2CCN(C3CCSCC3)CC2)n2nc(C)c(C)c2n1	-5.2
CN1CCN(CCO)C(=O)C12CCN(c1nccs1)CC2	-2.35
CN(Cc1nccn1C)C(=O)c1cccc(CCC(C)(C)O)c1	7.23
Cc1ccc(N2CCCC(Nc3nn4cc(C)nc4s3)C2)nn1 (stereo not drawn)	-9.29
CCC1CN(C(=O)c2cccc(OCc3cscn3)c2)CCO1 (stereo not drawn)	-5.57
Cn1nccc1CCC(=O)NC1CCCN(c2ccccn2)C1 (stereo not drawn)	-1.31
CC1c2ccc(F)cc2CCN1C(=O)c1[nH]c(=O)[nH]c(=O)c1N (stereo not drawn)	-1.6
Nc1ccnc(-c2cc(NC3CCNCC3)nc3[nH]ccc23)c1	-3.27
COc1ccc(NC(=O)Cn2nc(C)c(C(C)=O)c2C)cc1	2.67
O=C(c1ccoc1)N1CCn2nc(CN3CCSCC3)cc2C1	17.6
